Here are results for 10 molecules from US5093327A, “Inhibition of HIV and other retroviruses by polyoxoanions” (Du Pont Merck Pharmaceutical Company, priority 1991, dated 1992).

Converted amounts (≈) assume the structure as drawn.

In experiment [1] the test system is Friend leukemia virus (FLV). As to the kind of experiment: Splenomegaly assay for quantitation of Friend leukemia virus (FLV) in vivo. Also noted: species or system Female Balb/c mice. The conditions noted are these: for FLV In Vivo ED50: 50% inhibition of virus-induced splenomegaly, once a day through 7 days post-infection, 30240 min.
Experiment [2] relates to Friend leukemia virus (FLV). As to the kind of experiment: XC plaque assay for quantitation of Friend leukemia virus (FLV) in vitro. Type of experiment: cell-based. As to conditions: for FLV In Vitro IC50: XC plaque formation.
The subject of experiment [3] is Rauscher leukemia virus (RLV). As to the kind of experiment: Splenomegaly assay for quantitation of Rauscher leukemia virus (RLV) in vivo. Also noted: species or system Female BALB/c mice. The conditions noted are these: 50% inhibition of virus-induced splenomegaly, ip, once a day through 14 days post-infection; 30240 min. The source says:
Treatment is given once a day, continuing through 14 days post-infection. Ribavirin is used as a positive control compound. Uninfected, vehicle-treated mice serve as normal spleen controls, while infected, vehicle-treated mice serve as infected spleen controls. At 21 days post-infection the mice are sacrificed and spleens are surgically excised and weighed.

Experiment [4] relates to HIV-IIIB in H9 cells (reverse transcriptase). As to the kind of experiment: HIV Infectivity Assay in H9 Cells (HIV reverse transcriptase production). It is filed as cell-based. The conditions noted are these: day 10.
The subject of the next experiment is HIV-IIIB in ATH8 cells. As to the kind of experiment: HIV Infectivity Assay in ATH8 Cells (50% protection from virus-induced cytopathogenesis). Type of experiment: cell-based. The conditions noted are these: for HIV Infectivity ATH8 IC50: ATH8 cells, HIV-IIIB, 10 days.
The test system of experiment [5] is FLV. As to the kind of experiment: Alternate dosing regimen with combination therapy with AZT against FLV-induced splenomegaly. Type of experiment: in vivo, mice.
Experiment [6] has as its system FLV. Put plainly: Combination therapy with AZT against FLV-induced splenomegaly. Type of experiment: in vivo, mice. The protocol:
(§1) Female Balb/c mice are infected intraperitoneally with 0.2 ml of FLV suspension at a concentration predetermined to induce spleen weights of 1-2 grams in vehicle-treated control mice at 21 days post-infection. Beginning 24 hours post-infection, mice (10/group) are treated with 10-100 mg/kg of test compound in Sterile Normal Saline for injection (USP) as a carrier for either intraperitoneal, subcutaneous, intravenous or oral route administration. Treatment is given once a day, continuing through 7 days post-infection. AZT is used as a positive control compound. Uninfected, vehicle-treated mice serve as normal spleen controls, while virus-infected, vehicle-treated mice serve as infected spleen controls. At 21 days post-infection the mice are sacrificed and spleens are surgically excised and weighed. Results are expressed as Treated/Control (T/C), where control represents the means spleen weight of FLV-infected, vehicle-treated mice and is arbitrarily set to 1.0. The doses of test compounds required to inhibit virus-induced splenomegaly by 50% (ED50) are shown in Table 1 as compared to AZT the control compound.
Since AZT is currently approved for the clinical treatment of HIV/AIDS, a combination therapy of AZT and the compounds of the present invention for the treatment of retrovirus and, particularly HIV/AIDS, may be a favorable alternative treatment plan. In order to determine how effective the compounds would be if given together, the following study was done.
FLV-infected mice are treated with compound 1 (0.8-20 mg/kg), alone or in combination with AZT (8-200 mg/kg). Starting one day post-infection compounds are given once daily for seven days. Compound 1 is administered subcutaneously (sc) while AZT is administered intraperitoneally (ip) in order not to physically mix the compounds at the same site.

The next experiment relates to LPBM-5. As to the kind of experiment: Activity against LPBM-5 in vivo.
In another experiment the test system is SIV. Put plainly: Activity against SIV. Type of experiment: cell-based.
Experiment [7] relates to FLV. Put plainly: Compound 1/Poly-I:C combination therapy against FLV-induced splenomegaly. As to conditions: for reduction of splenomegaly: individual dosing. Type of experiment: in vivo, mice. How it is done:
as §1
FLV-infected mice are treated with compound 1 (1.25-20.00 mg/kg S.C. daily x 7d beginning one day post-infection alone or in combination with Poly-I:C (0.31-5.0 mg/kg ip daily x 7d beginning one day post-infection. Results are shown in Table 4.

The ED50 is the dose that gives a 50% effect, or the effect in half of the subjects. As usually defined, the IC50 is the concentration needed to halve the response being measured.

Regarding “1,2-K5 [Compound 2, 1,2-K5 [PV2 W10 O40]]”, the “FLV In Vivo ED50” value in [1] fell in the range of 10 to 20 mg/kg. Further, the “FLV In Vitro IC50” value in experiment [2] amounted to 2.5 µg/mL. For the same molecule, the “RLV In Vivo ED50” value in [3] was 15 to 20 mg/kg. Besides, the “HIV Infectivity RT/H9 IC50” value in [4] is less than 10 µg/mL. Besides, the “HIV Infectivity ATH8 IC50” value in the experiment on HIV-IIIB in ATH8 cells came out at 1.0 µg/mL.
Take `Cc1cn([C@H]2C[C@H](N=[N+]=[N-])[C@@H](CO)O2)c(=O)[nH]c1=O` [AZT, 3'-Azido-3'-deoxythymidine, reference compound]: in experiment [1] (Mus musculus, 504 h, read-out: FLV In Vivo ED50), the ED50 is 100 mg/kg. Also, the concentration for half-maximal inhibition (IC50) in experiment [2] (read-out: FLV In Vitro IC50) is 0.005 µg/mL (≈ 0.0187 µM); in the experiment with HIV-IIIB in ATH8 cells (Human immunodeficiency virus 1, IIIB, ATH-8, 240 h, read-out: HIV Infectivity ATH8 IC50), 0.005 µg/mL (≈ 0.0187 µM). In the experiment on HIV-IIIB in ATH8 cells (in vitro, data in Table 1), the “in vitro potency of AZT relative to the polyoxoanions” value is “more potent in vitro than the polyoxoanions of the present invention”. In addition, the “T/C (spleen weight)” value amounted to 0.93 with FLV [5] (AZT 12.5 mg/kg ip daily x 7 days, no Cpd 1 (Control)); 0.71 in the experiment with FLV [5] (AZT 50 mg/kg ip daily x 7 days, no Cpd 1 (Control)); 0.45 with FLV [5] (AZT 200 mg/kg ip daily x 7 days, no Cpd 1 (Control)); 0.83 in the experiment with FLV [6] (AZT 8 mg/kg ip, Cpd 1 0, days 1-7); 0.69 with FLV [6] (AZT 40 mg/kg ip, Cpd 1 0, days 1-7); 0.46 in the experiment with FLV [6] (AZT 200 mg/kg ip, Cpd 1 0, days 1-7). Besides, in the experiment with FLV [5] (AZT alone), the reduction in splenomegaly was 30-50%. Besides, the “percent reduction in splenomegaly” value in the experiment on FLV [6] (AZT alone at 200 mg/kg) is “about 50%”.
In the case of K6 [Compound 1, K6 [BVW11 O40]], in the experiment with LPBM-5, the “ED50 against LPBM-5 in vivo” value is 10 to 20 mg/kg. Also, the “IC50 against SIV” value with SIV is less than 1 µg/mL. Besides, the “FLV In Vivo ED50” value in [1] is 10 to 20 mg/kg. The “FLV In Vitro IC50” value in experiment [2] was determined as 1 µg/mL. Also, in experiment [3], the “RLV In Vivo ED50” value lay within 10 to 20 mg/kg. Also, the “HIV Infectivity RT/H9 IC50” value in [4] was less than 10 µg/mL. Moreover, the “HIV Infectivity ATH8 IC50” value with HIV-IIIB in ATH8 cells was determined as 1.0 µg/mL. Also, the “T/C (spleen weight)” value is given as 0.21 with FLV [5] (Cpd 1 80 mg/kg S.C. days 1 & 10, AZT 0); 0.17 in the experiment with FLV [5] (Cpd 1 80 mg/kg S.C. days 1 & 14, AZT 0); 0.5 in the experiment on FLV [5] (Cpd 1 80 mg/kg S.C. days 1 & 17, AZT 0); 0.8 in the experiment with FLV [7] (Cpd 1 1.25 mg/kg S.C. daily x 7 days, Poly-I:C 0); 0.58 in the experiment with FLV [7] (Cpd 1 5.0 mg/kg S.C. daily x 7 days, Poly-I:C 0); 0.33 with FLV [7] (Cpd 1 20.0 mg/kg S.C. daily x 7 days, Poly-I:C 0). Besides, the “T/C (spleen weight)” value stood at 1.0 with FLV [6] (Cpd 1 0.8 mg/kg sc, AZT 0, days 1-7); 0.94 in the experiment with FLV [6] (Cpd 1 4.0 mg/kg sc, AZT 0, days 1-7); 0.52 with FLV [6] (Cpd 1 20.0 mg/kg sc, AZT 0, days 1-7). The “efficacy of two doses administered alone” value with FLV [5] (two doses of compound 1 alone, 10-17 days apart) was “efficacious”. For the same molecule, in the experiment on FLV [7] (compound 1 20 mg/kg), the reduction of splenomegaly stood at 60%. Besides, the “percent reduction in splenomegaly” value in the experiment with FLV [6] (compound 1 alone at 20 mg/kg) is “about 50%”.
With K6 [Compound 5, K6 [SiTiW11 O40]], in [1], the “FLV In Vivo ED50” value was 20 mg/kg. Further, the “FLV In Vitro IC50” value in [2] is 3 µg/mL. Further, the “HIV Infectivity ATH8 IC50” value with HIV-IIIB in ATH8 cells was 3.2 µg/mL.
With K7 [Compound 3, K7 [BV^IV W11 O40]], the “FLV In Vivo ED50” value in experiment [1] worked out at 7.5 mg/kg. In addition, in experiment [2], the “FLV In Vitro IC50” value was 0.1 µg/mL. For the same molecule, the “HIV Infectivity RT/H9 IC50” value in [4] was less than 10 µg/mL. Besides, the “HIV Infectivity ATH8 IC50” value with HIV-IIIB in ATH8 cells was 1.5 µg/mL.
For K7 [Compound 6, K7 [PTi2 W10 O40]], the “FLV In Vivo ED50” value in experiment [1] is given as “IA (Inactive)”. In experiment [2], the “FLV In Vitro IC50” value was found to be 5 µg/mL. Also, the “HIV Infectivity ATH8 IC50” value in the experiment on HIV-IIIB in ATH8 cells was 5.6 µg/mL.
In the case of “K9 (NH4)H2 [Compound 8, K9 (NH4)H2 [(OCe)3 (PW9 O34)2]]”, the “FLV In Vivo ED50” value in experiment [1] lay in the range of 10 to 20 mg/kg. The “FLV In Vitro IC50” value in experiment [2] worked out at 10 µg/mL. In the experiment with HIV-IIIB in ATH8 cells, the “HIV Infectivity ATH8 IC50” value was determined as 1.0 µg/mL.
As for Na12 [Compound 7, Na12 [P2 W15 O62]], the “FLV In Vivo ED50” value in [1] is greater than 20 mg/kg. For the same molecule, the “HIV Infectivity ATH8 IC50” value in the experiment with HIV-IIIB in ATH8 cells came to 2.6 µg/mL.
On to “PolyInosinic-PolyCytidylic Acid [Poly-I:C, reference compound]”, for which the “T/C (spleen weight)” value in the experiment on FLV [7] (Poly-I:C 0.31 mg/kg ip daily x 7 d, Cpd 1 0) amounted to 1.2; in the experiment on FLV [7] (Poly-I:C 1.25 mg/kg ip daily x 7 d, Cpd 1 0), 1.1; with FLV [7] (Poly-I:C 5.0 mg/kg ip daily x 7 d, Cpd 1 0) it was 0.39. Also, the reduction of splenomegaly with FLV [7] (Poly-I:C 5 mg/kg) turned out to be 60%.
Turning to β-Cs5 [Compound 4, β-Cs5 [PV2 W10 O40]], in experiment [1], the “FLV In Vivo ED50” value was 10 to 20 mg/kg. In addition, the “FLV In Vitro IC50” value in experiment [2] was determined as 7 µg/mL. Also, in [4], the “HIV Infectivity RT/H9 IC50” value is less than 10 µg/mL. In addition, the “HIV Infectivity ATH8 IC50” value in the experiment on HIV-IIIB in ATH8 cells turned out to be 1.6 µg/mL.
